Measurements reported in patent US10365286B2, “Chromophoric structures for lanthanide chelates” (RADIOMETER TURKU OY, priority 2014, dated 2019).

Key:
[1] = Luminescence measurements of Eu(III) chelates with the ligands; assay type: physicochemical; details: Eu(III) complex of the ligand; 10 mM NH3-HCl buffer, pH 8.3
Experimental: FC=Flash chromatography. RT=room temperature. Microwave synthesizer was Initiator system (Biotage). ^1H NMR and ^13C NMR spectra were recorded on a Bruker AVANCE 500 DRX (Bruker, Karlsruhe, Germany) by using SiMe4 as internal standard and chemical shifts δ are in ppm. Mass spectra were recoded on a Voyager DE Pro (Applied Biosystems, Foster City, Calif.) mass spectrometer. HPLC runs were performed by Dionex's Ultimate 3000 system including Dionex's Ultimate 3000 Diode Array Detector. The used column was ThermoHypersil 150×4 mm 5μ Hypersil® ODS. Used eluents were 100 mM TEAA and CH3CN. Runs were performed by using an eluent gradient starting from 75% H2O, 20% 100 mM TEAA and 5% CH3CN and within 30 min to 30% H2O, 20% TEAA and 50% CH3CN. For the HPLC, sample concentration was aprox. 1 mg of chelate in 1 ml water. The sampling volume was 20-25 μl. The instrumentation, measurement and calculation principles for the molar absorptivities (ε), excitation maxima (λexc), luminescence lifetimes (τ), quantum yields (Φ), and triplet stage energies (T) see e.g. Räsänen, M., et al., 2014, J. Luminescence, 146, 211-217.
The luminescence parameters for Eu(III) complexes with ligands 11, 12, 14, 27, 28, and 35 were measured in 10 mM NH3-HCl buffer, pH 8.3. The molar absorptivities (c), excitation maxima (λexc ), luminescence lifetimes (τ), quantum yields (Φ), calculated luminescence yields (ε×Φ) and triplet stage (T) are presented in Table 1.

[2] = tested on: cTnI; assay: Model cTnI immunoassay with chelate-labelled detection antibodies; details: for Abs max: antibody labelled with the chelate
Experimental: Labeling was performed in 10 mM botate buffer, pH 8.6-9.0 using 30-fold molar excess of chelates. Reactions were normally carried out overnight at +4° C. or at room temperature. Labeled antibodies were purified on Superfex 200 HR 10/30 or Superdex 200 HiLoad 26/60 gel filtration columns using Tris-saline-azide […], 9.0 g/L NaCl, and 0.5 g/L NaN3), pH 7.75 as an elution buffer. The fractions containing the antibody were pooled and the europium concentrations measured against europium calibrator. The purified antibody comjugate and the labeling ratio (i.e. chelates per protein) were quantified by calculating the protein yield or by measureing the absorbance at 280 nm and subtracting the absorption caused by the added chelate.
An earlier published nine dentate label {2,2′,2″,2′″-{[2-(4-isothiocyanato-phenyl)ethylimino]bis(methylene)bis{4-{[4-(α-galactopyranoxy)phenyl]ethynyl}-pyridine-bis(methylenenitrilo)}tetrakis(acetato)}europium(III) (von Loden, P., et al., 2003, Anal. Chem. 75, 3193) was used as a reference label.
Two labels 49 and 54 were tested in a model cTnl assay. The cTnl immunoassays were performed by using biotinylated capture cTnl antibodies together with the labelled cTnl detection antibodies described above and according to the main principles described in published method (von Loden, P., et al., 2003, Anal. Chem. 75, 3193). The combined assay/wash buffer contained 5 mmol HEPES, 2.1 g/L NaCl, 0.1 mmol EDTA, 0.055 g/L Tween 20 and 1 g/L Gernall II, pH 7.75. The capture biotinylated antibodies were pre-incubated in assay wells. The standards followed by the detection label antibody diluted in 20 μl and 10 μl assay buffer, respectively, were applied to the wells. After one hour incubation at 36 C, the wells were washed, dried and measured.

[3] = Photo-physical properties of chelates conjugated to taurine; assay type: physicochemical; details: 50 mM TRIS buffer (pH 7.75)
Experimental: The prepared isothiocyante activated chelates (65 and 79) were conjugated to taurine as described above in Example 68. The products were purified with semi-preparative reversed phase HPLC (RP-18 column). After the product fractions were evaporated the residues were dissolved in 50 mM TRIS buffer.
The measured photo-physical properties excitation wavelengths (λexc), luminescence decay times (τ), molar absorptivities (ε), estimated luminescence yields (εΦ) of the novel chelates (66 and 80) in 50 mM TRIS buffer (pH 7.75) are in the Table 3. The nine dentate label {2,2′,2″,2′″-{[2-(4-isothiocyanato-phenyl)ethylimino]bis(methylene)bis{4-{[4-(α-galactopyranoxy)phenyl]-ethynyl}bis(methylenenitrilo)}tetrakis(acetato)}-europium(III) (von Loden, P., et al., 2003, Anal. Chem. 75, 3193) was used as a reference label.

[4] = Photo-physical properties of cTnI antibodies labelled with chelate; assay type: physicochemical
Experimental: The Tnl labeled antibodies were prepared as described in Example 61.
The measured photo-physical properties gave the excitation wavelengths (λexc)at 354 nm, a luminescence decay times (τ) of 460 μs molar absorptivities (c) of 142 000 cm^−1M^−1 and luminescence yields (εΦ) of 10 500 cm^−1M^− for the labelled cTnls with the chelate 66 in 50 mM TRIS buffer (pH 7.75)
Dry measurements gave the luminescence yield of 16 500 cm^−1M^−1, which represents estimated luminescence yields based on the signal measurements after dry immunoassay done as described in the Example 61.

[5] = labelled cTnI antibodies, 50 mM TRIS buffer (pH 7.75)

Row | calculated luminescence yield ε × Φ [1] | excitation maximum λexc [1] [nm] | luminescence lifetime τ [1] [μs] | molar absorptivity ε [1] | quantum yield Φ [1] | triplet stage T [1] | Structure (SMILES) | also measured
1 | 4 800 cm^−1M^−1 | 323 | 380 | 104 000 cm^−1M^−1 | 0.046 | 20 000 cm^−1 | O=C(O)CN(CC(=O)O)Cc1cc(-c2ccc3c(c2)Cc2ccccc2-3)cc(CN(CC(=O)O)CC(=O)O)n1 [Compound 11] | 
2 | 3 500 cm^−1M^−1 | 328 | 390 | 35 000 cm^−1M^−1 | 0.10 | 20 100 cm^−1 | O=C(O)CN(CC(=O)O)Cc1cc(-c2ccc3c(c2)C(CC(=O)O)(CC(=O)O)c2ccccc2-3)cc(CN(CC(=O)O)CC(=O)O)n1 [Compound 12] | 
3 | 4 200 cm^−1M^−1 | 342 | 355 | 38 200 cm^−1M^−1 | 0.11 | 19 200 cm^−1 | O=C(O)CN(CC(=O)O)Cc1cc(C#Cc2ccc3c(c2)C(CC(=O)O)(CC(=O)O)c2ccccc2-3)cc(CN(CC(=O)O)CC(=O)O)n1 [Compound 14] | 
4 |  |  |  |  |  |  | O=C([O-])CN(CC(=O)[O-])Cc1cc(C#Cc2ccc3c(c2)C(CC(=O)[O-])(CC(=O)[O-])c2ccccc2-3)cc(CN(CCc2ccc(N=C=S)cc2)Cc2cc(C#Cc3ccc4c(c3)C(CC(=O)[O-])(CC(=O)[O-])c3ccccc3-4)cc(CN(CC(=O)[O-])CC(=O)[O-])n2)n1.[Eu+3].[Na+].[Na+].[Na+].[Na+].[Na+] [Compound 49] | Abs max ([2]; First test): 348 nm; excitation after coupled in protein ([2]; label coupled to protein, broad excitation): around 350 nm
5 |  |  |  |  |  |  | O=C([O-])CN(CC(=O)[O-])Cc1cc(-c2ccc3c(c2)C(CC(=O)[O-])(CC(=O)[O-])c2ccccc2-3)cc(CN(CCc2ccc(N=C=S)cc2)Cc2cc(-c3ccc4c(c3)C(CC(=O)[O-])(CC(=O)[O-])c3ccccc3-4)cc(CN(CC(=O)[O-])CC(=O)[O-])n2)n1.[Eu+3].[Na+].[Na+].[Na+].[Na+].[Na+] [Compound 54] | Abs max ([2]; Second test): 327 nm
6 |  |  |  |  |  |  | O=C([O-])COc1cc(NC(=S)NCCS(=O)(=O)[O-])ccc1C#Cc1cc(CN(CC(=O)[O-])Cc2cc(C#Cc3ccc4c(c3)C(CC(=O)[O-])(CC(=O)[O-])c3ccccc3-4)cc(C(=O)[O-])n2)nc(CN(CC(=O)[O-])Cc2cc(C#Cc3ccc4c(c3)C(CC(=O)[O-])(CC(=O)[O-])c3ccccc3-4)cc(C(=O)[O-])n2)c1.[Eu+3].[Na+].[Na+].[Na+].[Na+].[Na+].[Na+].[Na+] [Compound 66] | estimated luminescence yield ε x Φ [3]: 8 700 cm^−1M^−1; excitation wavelength λexc [3]: 346 nm; luminescence decay time τ [3]: 540 μs; molar absorptivity ε [3]: 100 000 cm^−1M^−1; luminescence yield, dry measurements ([4]; estimated from signal measurements after dry immunoassay): 16 500 cm^−1M^−1; excitation wavelength λexc [4, 5]: 354 nm; luminescence decay time τ [4, 5]: 460 μs; luminescence yield εΦ [4, 5]: 10 500 cm^−1M^−; molar absorptivity [4, 5]: 142 000 cm^−1M^−1
7 |  |  |  |  |  |  | O=C([O-])COc1cc(OCC(=O)[O-])c(C#Cc2cc(CN(CC(=O)[O-])Cc3cc(C#Cc4ccc5c(c4)C(CC(=O)[O-])(CC(=O)[O-])c4cc(NC(=S)NCCS(=O)(=O)[O-])ccc4-5)cc(CN(CC(=O)[O-])Cc4cc(C#Cc5c(OCC(=O)[O-])cc(OCC(=O)[O-])cc5OCC(=O)[O-])cc(C(=O)[O-])n4)n3)nc(C(=O)[O-])c2)c(OCC(=O)[O-])c1.[Eu+3].[Na+].[Na+].[Na+].[Na+].[Na+].[Na+].[Na+].[Na+].[Na+].[Na+] [Compound 80] | estimated luminescence yield ε x Φ [3]: 5 600 cm^−1M^−1; excitation wavelength λexc [3]: 354 nm; luminescence decay time τ [3]: 290 μs; molar absorptivity ε [3]: 105 000 cm^−1M^−1
8 | 1 800 cm^−1M^−1 | 293 | 385 | 26 950 cm^−1M^−1 | 0.067 | 21 600 cm^−1 | O=C(O)CN(CC(=O)O)Cc1cc(C#Cc2ccccc2)cc(CN(CC(=O)O)CC(=O)O)n1 [Ref ligand, 2,2′,2″,2′″-[(4-phenylethynylpyridine-2,6-diyl)bis(methylenenitrilo)]tetrakis-(acetic acid), reference compound] | 
